# According to US20220281848A1, “PYRAZOLE-SUBSTITUTED PYRROLIDINONES AS HERBICIDES” (FMC Corporation, priority 2019, published 2022):
# Legend:
# Type in all cases: in vivo
# [1] = system: corn (Zea mays, ZEAMX); test: Test A pre-emergence, corn; details: after 13 d
# Outline: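 Damage rated visually at 13 d on a 0–100 scale (100 = plant killed). Pre-emergence spray one day after sowing; doses 15.625, 62.5 or 250 g/ha from an acetone/water 50:50 formulation with 0.5% Tween 20. Glasshouse at 24/16° C., 14 h photoperiod, 65% humidity.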
# [2] = system: ivy-leaved morning glory (Ipomoea hederacea, IPOHE); test: Test A post-emergence, ivy-leaved morning glory; details: after 13 d
# Outline: (§1)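 Visual damage rating (0 no damage to 100 total damage) was made 13 d after spraying. The spray was 15.625, 62.5 or 250 g/ha in 50:50 acetone/water with 0.5% Tween 20, applied to 8-day-old glasshouse plants kept at 24/16° C, 14 h light and 65% humidity.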
# [3] = system: velvetleaf (Abutilon theophrasti, ABUTH); test: Test A post-emergence, velvetleaf; details: after 13 d
# Outline: as §1
# [4] = system: wheat; test: Test D pre-emergence, wheat seed treated with a herbicide safener; details: 100=total damage, 0=no damage
# Outline: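 Damage, on a scale where 100 is total and 0 is none, was scored 15 d after post-emergence spraying (about 12-day-old plants) or 20 DAA after pre-emergence spraying (day 1). Maize and wheat came from herbicide-safener-treated seed and were kept in a glasshouse (24/18 or 20/16 °C, 16 h light, 65% humidity). The spray liquid was the test formulation diluted in 0.2% v/v aqueous adjuvant.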
# [5] = system: plants; test: Test D post-emergence, other plants of Tables D2 and D4; details: for ALOMY damage rating (100=total damage to plant; 0=no damage to plant) / AVEFA damage rating (100=total damage to plant; 0=no damage to plant) / BEAVA damage rating (100=total damage to plant; 0=no damage to plant) / BROTE damage rating (100=total damage to plant; 0=no damage to plant) / BRSNN damage rating (100=total damage to plant; 0=no damage to plant) / CHEAL damage rating (100=total damage to plant; 0=no damage to plant) / GALAP damage rating (100=total damage to plant; 0=no damage to plant) / HORVW damage rating (100=total damage to plant; 0=no damage to plant) / KCHSC damage rating (100=total damage to plant; 0=no damage to plant) / LOLPE damage rating (100=total damage to plant; 0=no damage to plant) / POAAN damage rating (100=total damage to plant; 0=no damage to plant) / POLCO damage rating (100=total damage to plant; 0=no damage to plant) / STEME damage rating (100=total damage to plant; 0=no damage to plant) / VERPE damage rating (100=total damage to plant; 0=no damage to plant): "Cereals" Postemergent, evaluated after 15 d
# Outline: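 Seeds treated with herbicide safener; sown in soil; glasshouse, 16 h light, 65% humidity. Sprayed day 1 (pre) or ~day 12 (post). Spray in 0.2% v/v adjuvant. Scored 0–100 damage: 20 DAA pre, 15 d post.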
# [6] = post-emergence, rate 130, evaluated after 15 d
# [7] = post-emergence, rate 250, evaluated after 15 d
# [8] = post-emergence, rate 500, evaluated after 15 d
compound,measurement,setting,value
CN1C[C@H](c2nn(C)c3c(F)cccc23)[C@@H](C(=O)Nc2cccc(F)c2F)C1=O [Compound 2],damage to plant (100=total damage; 0=no damage) ZEAMX,[1]; Pre-Emergence at 15.625 g/ha,0
same,damage to plant (100=total damage; 0=no damage) ZEAMX,[1]; Pre-Emergence at 62.5 g/ha,0
same,damage to plant (100=total damage; 0=no damage) ZEAMX,[1]; Pre-Emergence at 250 g/ha,10
same,damage to plant (100=total damage; 0=no damage) IPOHE,[2]; Post-Emergence at 15.625 g/ha,0
same,damage to plant (100=total damage; 0=no damage) IPOHE,[2]; Post-Emergence at 62.5 g/ha,0
same,damage to plant (100=total damage; 0=no damage) IPOHE,[2]; Post-Emergence at 250 g/ha,0
same,damage to plant (100=total damage; 0=no damage) ABUTH,[3]; Post-Emergence at 15.625 g/ha,0
same,damage to plant (100=total damage; 0=no damage) ABUTH,[3]; Post-Emergence at 62.5 g/ha,0
same,damage to plant (100=total damage; 0=no damage) ABUTH,[3]; Post-Emergence at 250 g/ha,0
same,"damage to plant, TRZAW","[4]; rate 15, 20 DAA",0
same,"damage to plant, TRZAW","[4]; rate 30, 20 DAA",0
same,"damage to plant, TRZAW","[4]; rate 60, 20 DAA",0
same,"damage to plant, TRZAW","[4]; rate 130, 20 DAA",10
same,"damage to plant, TRZAW","[4]; rate 250, 20 DAA",20
same,"damage to plant, TRZAW","[4]; rate 500, 20 DAA",80
same,ALOMY damage rating (100=total damage to plant; 0=no damage to plant),[5]; Rates 130,0
same,ALOMY damage rating (100=total damage to plant; 0=no damage to plant),[5]; Rates 250,10
same,ALOMY damage rating (100=total damage to plant; 0=no damage to plant),[5]; Rates 500,30
same,AVEFA damage rating (100=total damage to plant; 0=no damage to plant),[5]; Rates 130,0
same,AVEFA damage rating (100=total damage to plant; 0=no damage to plant),[5]; Rates 250,10
same,AVEFA damage rating (100=total damage to plant; 0=no damage to plant),[5]; Rates 500,40
same,BEAVA damage rating (100=total damage to plant; 0=no damage to plant),[5]; Rates 130,10
same,BEAVA damage rating (100=total damage to plant; 0=no damage to plant),[5]; Rates 250,20
same,BEAVA damage rating (100=total damage to plant; 0=no damage to plant),[5]; Rates 500,10
same,BROTE damage rating (100=total damage to plant; 0=no damage to plant),[5]; Rates 130,0
same,BROTE damage rating (100=total damage to plant; 0=no damage to plant),[5]; Rates 250,0
same,BROTE damage rating (100=total damage to plant; 0=no damage to plant),[5]; Rates 500,30
same,BRSNN damage rating (100=total damage to plant; 0=no damage to plant),[5]; Rates 130,40
same,BRSNN damage rating (100=total damage to plant; 0=no damage to plant),[5]; Rates 250,50
same,BRSNN damage rating (100=total damage to plant; 0=no damage to plant),[5]; Rates 500,40
same,CHEAL damage rating (100=total damage to plant; 0=no damage to plant),[5]; Rates 250,0
same,CHEAL damage rating (100=total damage to plant; 0=no damage to plant),[5]; Rates 500,20
same,GALAP damage rating (100=total damage to plant; 0=no damage to plant),[5]; Rates 130,0
same,GALAP damage rating (100=total damage to plant; 0=no damage to plant),[5]; Rates 250,10
same,GALAP damage rating (100=total damage to plant; 0=no damage to plant),[5]; Rates 500,0
same,HORVW damage rating (100=total damage to plant; 0=no damage to plant),[5]; Rates 130,0
same,HORVW damage rating (100=total damage to plant; 0=no damage to plant),[5]; Rates 250,20
same,HORVW damage rating (100=total damage to plant; 0=no damage to plant),[5]; Rates 500,30
same,KCHSC damage rating (100=total damage to plant; 0=no damage to plant),[5]; Rates 130,0
same,KCHSC damage rating (100=total damage to plant; 0=no damage to plant),[5]; Rates 250,0
same,KCHSC damage rating (100=total damage to plant; 0=no damage to plant),[5]; Rates 500,0
same,LOLPE damage rating (100=total damage to plant; 0=no damage to plant),[5]; Rates 130,0
same,LOLPE damage rating (100=total damage to plant; 0=no damage to plant),[5]; Rates 250,0
same,LOLPE damage rating (100=total damage to plant; 0=no damage to plant),[5]; Rates 500,0
same,POAAN damage rating (100=total damage to plant; 0=no damage to plant),[5]; Rates 130,20
same,POAAN damage rating (100=total damage to plant; 0=no damage to plant),[5]; Rates 250,70
same,POAAN damage rating (100=total damage to plant; 0=no damage to plant),[5]; Rates 500,80
same,POLCO damage rating (100=total damage to plant; 0=no damage to plant),[5]; Rates 130,0
same,POLCO damage rating (100=total damage to plant; 0=no damage to plant),[5]; Rates 250,20
same,POLCO damage rating (100=total damage to plant; 0=no damage to plant),[5]; Rates 500,40
same,STEME damage rating (100=total damage to plant; 0=no damage to plant),[5]; Rates 130,0
same,STEME damage rating (100=total damage to plant; 0=no damage to plant),[5]; Rates 250,0
same,STEME damage rating (100=total damage to plant; 0=no damage to plant),[5]; Rates 500,0
same,VERPE damage rating (100=total damage to plant; 0=no damage to plant),[5]; Rates 130,0
same,VERPE damage rating (100=total damage to plant; 0=no damage to plant),[5]; Rates 250,10
same,VERPE damage rating (100=total damage to plant; 0=no damage to plant),[5]; Rates 500,0
same,"damage to plant (100=total damage to plant; 0=no damage to plant), ABUTH","[5]; post-emergence, ABUTH, rate 500, evaluated after 15 d",0
same,"damage to plant (100=total damage to plant; 0=no damage to plant), AMARE",[5]; [6],0
same,"damage to plant (100=total damage to plant; 0=no damage to plant), AMARE",[5]; [7],10
same,"damage to plant (100=total damage to plant; 0=no damage to plant), AMARE",[5]; [8],30
same,"damage to plant (100=total damage to plant; 0=no damage to plant), BIDPI",[5]; [6],0
same,"damage to plant (100=total damage to plant; 0=no damage to plant), BIDPI",[5]; [7],0
same,"damage to plant (100=total damage to plant; 0=no damage to plant), BIDPI",[5]; [8],10
same,"damage to plant (100=total damage to plant; 0=no damage to plant), BRAPL",[5]; [6],70
same,"damage to plant (100=total damage to plant; 0=no damage to plant), BRAPL",[5]; [7],80
same,"damage to plant (100=total damage to plant; 0=no damage to plant), BRAPL",[5]; [8],80
same,"damage to plant (100=total damage to plant; 0=no damage to plant), CYPES",[5]; [6],0
same,"damage to plant (100=total damage to plant; 0=no damage to plant), CYPES",[5]; [7],0
same,"damage to plant (100=total damage to plant; 0=no damage to plant), CYPES",[5]; [8],0
same,"damage to plant (100=total damage to plant; 0=no damage to plant), DIGSA",[5]; [6],60
same,"damage to plant (100=total damage to plant; 0=no damage to plant), DIGSA",[5]; [7],70
same,"damage to plant (100=total damage to plant; 0=no damage to plant), DIGSA",[5]; [8],70
same,"damage to plant (100=total damage to plant; 0=no damage to plant), ECHCG",[5]; [7],80
same,"damage to plant (100=total damage to plant; 0=no damage to plant), ECHCG",[5]; [8],80
same,"damage to plant (100=total damage to plant; 0=no damage to plant), ELEIN",[5]; [6],0
same,"damage to plant (100=total damage to plant; 0=no damage to plant), ELEIN",[5]; [7],0
same,"damage to plant (100=total damage to plant; 0=no damage to plant), ELEIN",[5]; [8],0
same,"damage to plant (100=total damage to plant; 0=no damage to plant), EPHHL",[5]; [6],0
same,"damage to plant (100=total damage to plant; 0=no damage to plant), EPHHL",[5]; [7],10
same,"damage to plant (100=total damage to plant; 0=no damage to plant), EPHHL",[5]; [8],40
same,"damage to plant (100=total damage to plant; 0=no damage to plant), GLXMA",[5]; [6],0
same,"damage to plant (100=total damage to plant; 0=no damage to plant), GLXMA",[5]; [7],0
same,"damage to plant (100=total damage to plant; 0=no damage to plant), GLXMA",[5]; [8],10
same,"damage to plant (100=total damage to plant; 0=no damage to plant), IPOHE",[5]; [6],10
same,"damage to plant (100=total damage to plant; 0=no damage to plant), IPOHE",[5]; [7],20
same,"damage to plant (100=total damage to plant; 0=no damage to plant), IPOHE",[5]; [8],30
same,"damage to plant (100=total damage to plant; 0=no damage to plant), ORYSA",[5]; [6],0
same,"damage to plant (100=total damage to plant; 0=no damage to plant), ORYSA",[5]; [7],0
same,"damage to plant (100=total damage to plant; 0=no damage to plant), ORYSA",[5]; [8],10
same,"damage to plant (100=total damage to plant; 0=no damage to plant), PANMI",[5]; [6],0
same,"damage to plant (100=total damage to plant; 0=no damage to plant), PANMI",[5]; [7],0
same,"damage to plant (100=total damage to plant; 0=no damage to plant), PANMI",[5]; [8],0
same,"damage to plant (100=total damage to plant; 0=no damage to plant), SETFA",[5]; [6],70
same,"damage to plant (100=total damage to plant; 0=no damage to plant), SETFA",[5]; [7],70
same,"damage to plant (100=total damage to plant; 0=no damage to plant), SETFA",[5]; [8],80
same,"damage to plant (100=total damage to plant; 0=no damage to plant), SIDSP",[5]; [6],0
same,"damage to plant (100=total damage to plant; 0=no damage to plant), SIDSP",[5]; [7],0
same,"damage to plant (100=total damage to plant; 0=no damage to plant), SIDSP",[5]; [8],0
same,"damage to plant (100=total damage to plant; 0=no damage to plant), SORVU",[5]; [6],0
same,"damage to plant (100=total damage to plant; 0=no damage to plant), SORVU",[5]; [7],0
same,"damage to plant (100=total damage to plant; 0=no damage to plant), SORVU",[5]; [8],0
